The target of this assay is T1, Tyrosine-protein phosphatase non-receptor type 1 (Homo sapiens, UniProt P18031).
T1 sequence (P18031 whole entry): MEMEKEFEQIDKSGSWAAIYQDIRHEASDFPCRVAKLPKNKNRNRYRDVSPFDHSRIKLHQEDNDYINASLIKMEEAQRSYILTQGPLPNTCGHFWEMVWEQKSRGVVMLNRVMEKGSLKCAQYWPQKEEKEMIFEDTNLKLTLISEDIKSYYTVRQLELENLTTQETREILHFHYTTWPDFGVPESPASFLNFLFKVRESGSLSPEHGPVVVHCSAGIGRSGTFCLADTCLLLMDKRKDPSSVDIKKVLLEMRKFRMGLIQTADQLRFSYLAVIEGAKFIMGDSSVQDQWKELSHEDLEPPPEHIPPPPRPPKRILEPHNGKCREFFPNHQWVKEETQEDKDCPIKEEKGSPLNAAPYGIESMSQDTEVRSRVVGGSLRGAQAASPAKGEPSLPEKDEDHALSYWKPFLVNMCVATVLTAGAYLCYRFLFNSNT
Kind of assay: Non-competitive reversible inhibition of human PTP1B.

Each structure is given as a SMILES string.

`CC1(C)C=C2C(=NN(c3ccccc3)C(N)=C2C#N)CO1`: the IC50 reads like this: (read-out: IC50) 5.7 µM; (read-out: pIC50 (converted)) 5.7 µM.
As for `N#CC1=C(N)N(c2ccccc2)N=C2CSCC=C21`, the IC50 is 1.1 µM (read-out: IC50) and 1.1 µM (read-out: pIC50 (converted)).
For the compound `CC1(C)C=C2C(=NN(c3cccc(CO)c3)C(N)=C2C#N)CO1`, the IC50 is, setting by setting: (read-out: IC50) 2.4 µM; (read-out: pIC50 (converted)) 2.4 µM.
`CC1(C)C=C2C(=NN(c3ccccc3C(F)(F)F)C(N)=C2C#N)CO1`: the IC50 runs as follows: (read-out: IC50) 3.9 µM; (read-out: pIC50 (converted)) 3.9 µM.
With `CC1(C)C=C2C(=NN(c3cccc(C(F)(F)F)c3)C(N)=C2C#N)CO1`, the IC50 (read-out: IC50) came out at 2.8 µM and the IC50 (read-out: pIC50 (converted)) was 2.8 µM.
Regarding `CCOc1ccc(N2N=C3COC(C)(C)C=C3C(C#N)=C2N)cc1`, the IC50 by setting is: (read-out: IC50) 3.2 µM; (read-out: pIC50 (converted)) 3.2 µM.
Consider `CCOc1ccccc1N1N=C2COC(C)(C)C=C2C(C#N)=C1N`, for which the IC50 (read-out: IC50) was determined as 3.4 µM and the IC50 (read-out: pIC50 (converted)) was 3.4 µM.
For the compound `N#CC1=C(N)N(c2ccccc2)N=C2COCC=C21`, the IC50 (read-out: IC50) was determined as 0.35 µM and the IC50 (read-out: pIC50 (converted)) was 0.35 µM.
With `COC(=O)c1cccc(N2N=C3COC(C)(C)C=C3C(C#N)=C2N)c1`, the IC50 by setting is: (read-out: IC50) 2.1 µM; (read-out: pIC50 (converted)) 2.1 µM.
For the compound `N#CC1=C(N)N(c2ccccc2)N=C2CCCC=C21`, the IC50 (read-out: IC50) was 10.4 µM and the IC50 (read-out: pIC50 (converted)) is 10.4 µM.
Take `CC(C)c1ccccc1N1N=C2CSCC=C2C(C#N)=C1N`: the IC50 is 2 µM (read-out: IC50) and 2 µM (read-out: pIC50 (converted)).
As for `N#CC1=C(N)N(c2ccc(F)cc2)N=C2CSCC=C21`, the IC50 by setting is: (read-out: IC50) 2 µM; (read-out: pIC50 (converted)) 2 µM.
As to `N#CC1=C(N)N(c2ccccc2F)N=C2CSCC=C21`, the IC50 runs as follows: (read-out: IC50) 4.4 µM; (read-out: pIC50 (converted)) 4.4 µM.
On to `COc1ccc(N2N=C3CSCC=C3C(C#N)=C2N)cc1`, for which the IC50 (read-out: IC50) worked out at 1.3 µM and the IC50 (read-out: pIC50 (converted)) was 1.3 µM.
As for `CC1(C)C=C2C(=NN(c3ccccc3N3CCOCC3)C(N)=C2C#N)CO1`, the IC50 is 2.9 µM (read-out: IC50) and 2.9 µM (read-out: pIC50 (converted)).
`CC(C)c1cccc(N2N=C3COC(C)(C)C=C3C(C#N)=C2N)c1`: the IC50 runs as follows: (read-out: IC50) 8.2 µM; (read-out: pIC50 (converted)) 8.2 µM.
Regarding `CCCCc1ccc(N2N=C3COC(C)(C)C=C3C(C#N)=C2N)cc1`, the IC50 was 7 µM (read-out: IC50) and 7 µM (read-out: pIC50 (converted)).
For `CCCCc1ccccc1N1N=C2COC(C)(C)C=C2C(C#N)=C1N`, the IC50 reads like this: (read-out: IC50) 1.5 µM; (read-out: pIC50 (converted)) 1.5 µM.
As to `CC1(C)C=C2C(=NN(c3ccc(F)cc3)C(N)=C2C#N)CO1`, the IC50 is 4.9 µM (read-out: IC50) and 4.9 µM (read-out: pIC50 (converted)).
As for `CC1(C)C=C2C(=NN(c3ccccc3F)C(N)=C2C#N)CO1`, the IC50 (read-out: IC50) amounted to 2.4 µM and the IC50 (read-out: pIC50 (converted)) was 2.4 µM.
As for `CC1(C)C=C2C(=NN(c3cccc(F)c3)C(N)=C2C#N)CO1`, the IC50 (read-out: IC50) is 4.5 µM and the IC50 (read-out: pIC50 (converted)) was 4.5 µM.
Regarding `CC1(C)C=C2C(=NN(c3ccc(CCO)cc3)C(N)=C2C#N)CO1`, the IC50 by setting is: (read-out: IC50) 2.9 µM; (read-out: pIC50 (converted)) 2.9 µM.
On to `COc1ccc(N2N=C3COC(C)(C)C=C3C(C#N)=C2N)cc1`, for which the IC50 is, setting by setting: (read-out: IC50) 2.2 µM; (read-out: pIC50 (converted)) 2.2 µM.
Regarding `COc1ccccc1N1N=C2COC(C)(C)C=C2C(C#N)=C1N`, the IC50 is 6.2 µM (read-out: IC50) and 6.19 µM (read-out: pIC50 (converted)).
Turning to `COc1cccc(N2N=C3COC(C)(C)C=C3C(C#N)=C2N)c1`, the IC50 (read-out: IC50) turned out to be 3.6 µM and the IC50 (read-out: pIC50 (converted)) is 3.6 µM.
For `CC1(C)C=C2C(=NN(c3ccc(Oc4ccccc4)cc3)C(N)=C2C#N)CO1`, the IC50 is 22.7 µM (read-out: IC50) and 22.7 µM (read-out: pIC50 (converted)).
On to `CC1(C)C=C2C(=NN(c3ccccc3Oc3ccccc3)C(N)=C2C#N)CO1`, for which the IC50 is 15.8 µM (read-out: IC50) and 15.8 µM (read-out: pIC50 (converted)).
Take `CC1(C)C=C2C(=NN(c3cccc(Oc4ccccc4)c3)C(N)=C2C#N)CO1`: the IC50 was 3.9 µM (read-out: IC50) and 3.9 µM (read-out: pIC50 (converted)).
Turning to `CC(=O)Nc1ccc(N2N=C3COC(C)(C)C=C3C(C#N)=C2N)cc1`, the IC50 runs as follows: (read-out: IC50) 6.1 µM; (read-out: pIC50 (converted)) 6.1 µM.
For `CC(=O)Nc1cccc(N2N=C3COC(C)(C)C=C3C(C#N)=C2N)c1`, the IC50 by setting is: (read-out: IC50) 2.3 µM; (read-out: pIC50 (converted)) 2.3 µM.
Regarding `CC1(C)C=C2C(=NN(c3ccccc3[N+](=O)[O-])C(N)=C2C#N)CO1`, the IC50 (read-out: IC50) worked out at 17.5 µM and the IC50 (read-out: pIC50 (converted)) was 17.5 µM.
`CCc1ccc(N2N=C3COC(C)(C)C=C3C(C#N)=C2N)cc1`: the IC50 is 2.8 µM (read-out: IC50) and 2.8 µM (read-out: pIC50 (converted)).
On to `CCc1ccccc1N1N=C2COC(C)(C)C=C2C(C#N)=C1N`, for which the IC50 is 1.6 µM (read-out: IC50) and 1.6 µM (read-out: pIC50 (converted)).
Take `CCc1cccc(N2N=C3COC(C)(C)C=C3C(C#N)=C2N)c1`: the IC50 by setting is: (read-out: IC50) 8.2 µM; (read-out: pIC50 (converted)) 8.2 µM.
For the compound `CC1(C)C=C2C(=NN(c3ccc(CO)cc3)C(N)=C2C#N)CO1`, the IC50 reads like this: (read-out: IC50) 1.7 µM; (read-out: pIC50 (converted)) 1.7 µM.
Consider `CC1(C)C=C2C(=NN(c3ccccc3CO)C(N)=C2C#N)CO1`, for which the IC50 (read-out: IC50) turned out to be 11.1 µM and the IC50 (read-out: pIC50 (converted)) was 11.1 µM.
For `CC(C)c1ccc(N2N=C3CSCC=C3C(C#N)=C2N)cc1`, the IC50 is, setting by setting: (read-out: IC50) 5.6 µM; (read-out: pIC50 (converted)) 5.6 µM.

(Values after ChEMBL document CHEMBL2424609, “In silico accounting of novel pyridazine analogues as h-PTP 1B inhibitors: pharmacophore modelling, atom-based 3D QSAR and docking studies” (Med Chem Res, 2013).)
